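Five compound concentrations were applied to cells in 96-well plates for 48 hours; endpoints were derived by simple linear interpolation of the resulting dose-response curve. GI50 = concentration required for 50% inhibition of growth.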 The source made the active and inactive calls. Rule as the data show it: active = GI50 up to about 1.1 µM and inactive = higher.
Tests used:
Assay in all cases: growth of human tumour cells (NCI), 48 h
[1] = test system: SK-MEL-28
[2] = test system: MOLT-4
[3] = test system: T47D
[4] = test system: NCI-H23
[5] = test system: SF-268
[6] = test system: NCI-H522
[7] = test system: SNB-19
[8] = test system: SNB-75
[9] = test system: HT-29
[10] = test system: LOX IMVI
[11] = test system: SF-295
[12] = test system: UO-31
[13] = test system: PC-3
[14] = test system: UACC-257
[15] = test system: MCF7
[16] = test system: HOP-62
[17] = test system: SK-MEL-2
[18] = test system: EKVX
[19] = test system: OVCAR-5
[20] = test system: HL-60

| SMILES | GI50 [1] | GI50 [2] | GI50 [3] | GI50 [4] | GI50 [5] | GI50 [6] | GI50 [7] | GI50 [8] | GI50 [9] | GI50 [10] | GI50 [11] | GI50 [12] | GI50 [13] | GI50 [14] | GI50 [15] | GI50 [16] | GI50 [17] | GI50 [18] | GI50 [19] | GI50 [20] |
| --- | --- | --- | --- | --- | --- | --- | --- | --- | --- | --- | --- | --- | --- | --- | --- | --- | --- | --- | --- | --- |
| Cc1ccc(S(=O)(=O)NCCSS(=O)(=O)c2ccc(C)cc2)cc1 | 31.7 µM (inactive) | 26.8 µM (inactive) | 27.7 µM (inactive) | 57.4 µM (inactive) | 22.1 µM (inactive) | 18.2 µM (inactive) | 72.9 µM (inactive) | 30.4 µM (inactive) | 22.6 µM (inactive) | 33.4 µM (inactive) | 35.6 µM (inactive) | 28 µM (inactive) | 27.6 µM (inactive) | 64.1 µM (inactive) | 22.3 µM (inactive) |  |  |  |  |  |
| COc1ccc(S(=O)(=O)c2nnc(S(=O)(=O)Cc3ccccc3)s2)cc1 | 20.5 µM (inactive) | 2.58 µM (inactive) | 29.6 µM (inactive) | 27.3 µM (inactive) | 33.7 µM (inactive) | 8.18 µM (inactive) | 20.8 µM (inactive) | 16.4 µM (inactive) | 17.9 µM (inactive) |  | 33.3 µM (inactive) | 21.6 µM (inactive) | 21.1 µM (inactive) | 14.7 µM (inactive) | 19.2 µM (inactive) | 30.3 µM (inactive) | 18.3 µM (inactive) | 22.4 µM (inactive) | 25.8 µM (inactive) |  |
| Oc1ccc(Cl)cc1C1=NC(/N=C\c2ccccc2)=NC(c2ccccc2)C1 (stereo unspecified) | > 100 µM (inactive) | > 100 µM (inactive) | 13.3 µM (inactive) | 3.87 µM (inactive) | 7.19 µM (inactive) | 12.1 µM (inactive) |  | 17.5 µM (inactive) | 24.8 µM (inactive) |  | > 100 µM (inactive) | 10.5 µM (inactive) | > 100 µM (inactive) | > 100 µM (inactive) | 7.83 µM (inactive) | 25.7 µM (inactive) | > 100 µM (inactive) | > 100 µM (inactive) | > 100 µM (inactive) |  |
| CCNC(=O)c1cc(Cl)ccc1NC(=O)C12CC3CC(CC(C3)C1)C2 | 35.8 µM (inactive) | 34.8 µM (inactive) | 34.5 µM (inactive) | 56.8 µM (inactive) | > 100 µM (inactive) | 75.5 µM (inactive) | 43.6 µM (inactive) |  | 18 µM (inactive) | 42 µM (inactive) | 52.1 µM (inactive) | 22.3 µM (inactive) | 32.1 µM (inactive) | 30.4 µM (inactive) | 39.1 µM (inactive) | 30.1 µM (inactive) | 23.1 µM (inactive) | 21.4 µM (inactive) | 42.3 µM (inactive) | 25.5 µM (inactive) |
| COc1ccc2c(O)c3[n+](cc2c1OC)CCc1cc2c(cc1-3)OCO2 |  | > 100 µM (inactive) | 88.3 µM (inactive) | > 100 µM (inactive) | > 100 µM (inactive) | 17 µM (inactive) | > 100 µM (inactive) | > 100 µM (inactive) | 63.2 µM (inactive) | 69 µM (inactive) | 42.9 µM (inactive) |  | > 100 µM (inactive) | > 100 µM (inactive) | 56.2 µM (inactive) | > 100 µM (inactive) | > 100 µM (inactive) | > 100 µM (inactive) | > 100 µM (inactive) | 33.2 µM (inactive) |
| C/C=C(/C)C(=O)O[C@H]1[C@H]2[C@@H]([C@@H](OC(C)=O)[C@H](C)C(=O)[C@@]34C[C@@H](C)C(=O)[C@]3(/C=C(\C)[C@H]1OC(C)=O)O4)C2(C)C |  | 1.83 µM (inactive) | 2.31 µM (inactive) | 6.46 µM (inactive) | 5.98 µM (inactive) | 3.28 µM (inactive) | 4.32 µM (inactive) | 4.98 µM (inactive) |  | 3.09 µM (inactive) | 3.89 µM (inactive) | 3.85 µM (inactive) | 3.45 µM (inactive) | 4.09 µM (inactive) | 3.26 µM (inactive) | 3.15 µM (inactive) | 4.27 µM (inactive) | 3.83 µM (inactive) | 3.94 µM (inactive) | 0.305 µM (active) |
| C#CC1(O)CCCCCCCCC2(CCCCCCCC1)OCCO2 | 19.5 µM (inactive) |  | 15.5 µM (inactive) | 16.8 µM (inactive) | 17.3 µM (inactive) | 2.56 µM (inactive) | 18.9 µM (inactive) |  | 18.3 µM (inactive) | 22.1 µM (inactive) | 19.8 µM (inactive) | < 0.01 µM (active) | 12.8 µM (inactive) | 23.4 µM (inactive) | 20.3 µM (inactive) | 29.7 µM (inactive) | 13.7 µM (inactive) | 18.4 µM (inactive) | 22 µM (inactive) | 13.5 µM (inactive) |
| O=C1NN=C2C=C(c3ccc(Cl)cc3)CC(c3cccc(Br)c3)C12 (stereo unspecified) |  | 43.9 µM (inactive) | 22.1 µM (inactive) | 87.3 µM (inactive) | 68.5 µM (inactive) | 38.4 µM (inactive) | 21.2 µM (inactive) | 80.9 µM (inactive) | > 100 µM (inactive) | 46.9 µM (inactive) | 91.4 µM (inactive) | 42.8 µM (inactive) | 53.7 µM (inactive) | 22.4 µM (inactive) | 44 µM (inactive) | > 100 µM (inactive) | 84.5 µM (inactive) | 47.5 µM (inactive) | > 100 µM (inactive) | 42 µM (inactive) |
| Cc1ccc(-c2nc3cc(F)c(N4CCN(C)CC4)cc3[nH]2)cc1 | 26.2 µM (inactive) | 22.8 µM (inactive) | 23 µM (inactive) | 22.2 µM (inactive) | 15.3 µM (inactive) | 14.5 µM (inactive) | 22 µM (inactive) |  |  | 27.9 µM (inactive) | 16.6 µM (inactive) | 13.9 µM (inactive) | 24.1 µM (inactive) | 17.2 µM (inactive) | 15.3 µM (inactive) | 15.8 µM (inactive) | 17.1 µM (inactive) | 23.1 µM (inactive) | 21.9 µM (inactive) | 21.4 µM (inactive) |
| CCCCNC(=O)c1cc(S(=O)(=O)n2ccnc2O)c(SC)cc1Cl | > 100 µM (inactive) | > 100 µM (inactive) | > 100 µM (inactive) | > 100 µM (inactive) | > 10 µM (inactive) | > 100 µM (inactive) | > 100 µM (inactive) |  | > 100 µM (inactive) | > 100 µM (inactive) | > 100 µM (inactive) | > 100 µM (inactive) | > 100 µM (inactive) | > 100 µM (inactive) | > 100 µM (inactive) | > 100 µM (inactive) | > 100 µM (inactive) | > 100 µM (inactive) | > 100 µM (inactive) | > 100 µM (inactive) |
| CC(=O)c1ccccc1NP(=O)(c1ccccc1)c1ccccc1 | 67.9 µM (inactive) | 32.1 µM (inactive) | 43.3 µM (inactive) | 79.1 µM (inactive) | 74.5 µM (inactive) | 37.3 µM (inactive) | > 100 µM (inactive) |  | 47.1 µM (inactive) | 90.6 µM (inactive) | 74.6 µM (inactive) | 45.3 µM (inactive) | > 100 µM (inactive) | 68.9 µM (inactive) | 64.6 µM (inactive) | > 100 µM (inactive) | 54.1 µM (inactive) | 45.4 µM (inactive) | > 100 µM (inactive) | 33.2 µM (inactive) |
| C1CSCCSCCSCCSC1 | > 100 µM (inactive) | > 100 µM (inactive) | > 100 µM (inactive) | > 100 µM (inactive) | > 100 µM (inactive) | > 100 µM (inactive) | > 100 µM (inactive) | > 100 µM (inactive) | > 100 µM (inactive) | > 100 µM (inactive) | > 100 µM (inactive) | > 100 µM (inactive) | > 100 µM (inactive) | > 100 µM (inactive) | > 100 µM (inactive) | > 100 µM (inactive) | > 100 µM (inactive) | > 100 µM (inactive) | > 100 µM (inactive) |  |
| CCCCCCCC(CC(=O)NC(CO)C(=O)NC(CO)CC(C)C)OC(=O)CC(CCCCCCC)OC(=O)CC(CCCCCCC)OC1OC(C)C(O)C(OC2OC(C)C(OC(C)=O)C(O)C2O)C1O (stereo unspecified) | 6.64 µM (inactive) | 2.38 µM (inactive) | 9.14 µM (inactive) | 9.53 µM (inactive) | 8.28 µM (inactive) | 11.7 µM (inactive) | 5.27 µM (inactive) | 4.59 µM (inactive) | 3.41 µM (inactive) |  | 12 µM (inactive) | 15.4 µM (inactive) | 4.04 µM (inactive) | 2.22 µM (inactive) | 11.1 µM (inactive) | 17.1 µM (inactive) |  | 14.9 µM (inactive) | 10.1 µM (inactive) | 2.92 µM (inactive) |
| Cc1n[nH]c(=O)n1/N=C/c1cccnc1 | > 100 µM (inactive) | > 100 µM (inactive) | > 100 µM (inactive) | > 100 µM (inactive) | > 100 µM (inactive) | > 100 µM (inactive) | > 100 µM (inactive) |  | > 100 µM (inactive) | > 100 µM (inactive) | > 100 µM (inactive) | > 100 µM (inactive) | > 100 µM (inactive) | > 100 µM (inactive) | > 100 µM (inactive) | > 100 µM (inactive) | > 100 µM (inactive) | > 100 µM (inactive) | > 100 µM (inactive) | > 100 µM (inactive) |
| CCCCCC(C(O)C#N)C(O)(C(F)(F)F)C(F)(F)F (stereo unspecified) | > 10 µM (inactive) | > 10 µM (inactive) | > 10 µM (inactive) | > 10 µM (inactive) | > 10 µM (inactive) | > 10 µM (inactive) | > 10 µM (inactive) | > 10 µM (inactive) | > 10 µM (inactive) | > 10 µM (inactive) | > 10 µM (inactive) |  | > 10 µM (inactive) | > 10 µM (inactive) | > 10 µM (inactive) | > 10 µM (inactive) |  |  | > 10 µM (inactive) | > 10 µM (inactive) |

Reference: ChEMBL document CHEMBL1201862, “PubChem BioAssay data set” (2004)
